Measured values from patent US20260152502A1, “PIPERIDINYL-METHYL-PURINE AMINE SALTS, CRYSTALLINE FORMS, AND THEIR USE IN TREATING MEDICAL DISEASES AND CONDITIONS” (K36 THERAPEUTICS, INC., priority 2022, published 2026).

How the values were obtained:
Format in all cases: physicochemical
[1] = water solubility of the crystalline solid; details: pH 7.0 (phosphate buffer), 37° C., after 30 minutes
[2] = hygroscicity by dynamic vapor sorption; details: transitioned from 5% to 95% relative humidity
Experimental: Dynamic vapor sorption was performed using a Q5000SA. The sample (5-15 mg) was loaded into a metallic quartz sample pan, suspended from a microbalance, and exposed to a humidified stream of nitrogen gas. Weight changes were relative to a matching empty reference pan opposite the sample, suspended from the microbalance. The sample was held for a minimum of 10 min at each humidity level and only progressed to the next humidity level if there was <0.002% change in weight between measurements (interval: 5 s) or 45 min had elapsed (for 5-65% RH) or 2 hours had elapsed (for 80 and 95% RH). The following program was used: • 1. Equilibration at 50% RH • 2. 50% to 5% (50%, 35%, 20%, and 5%) • 3. 5% to 95% (5%, 20%, 35%, 50%, 65%, 80%, and 95%) • 4. 95% to 5% (95%, 80%, 65%, 50%, 35%, 20%, and 5%) • 5. 5% to 50% (5%, 20%, 35%, and 50%).
The crystalline solid was analyzed for hygroscopicity.

[3] = accelerated stability study (75% relative humidity, 40° C., one week); details: one week at 75% relative humidity
Experimental: An accelerated stability study was conducted on the crystalline solid. Approximately 10 mg of crystalline solid was placed into a 4 mL vial, and the vial was covered with a Kimwipe. The vial was stored for one week inside a stability chamber producing a relative humidity of 75% at 40° C.

Substance: p-Toluenesulfonic Acid Salt of (S)-1-((R)-3-amino-1-(4-((6-amino-9H-purin-9-yl)methyl)-6-(2,5-difluoro-4-methoxyphenyl)pyridin-3-yl)piperidin-3-yl)-2,2-difluoroethan-1-ol [Example 3]
- water solubility (mg/mL of the free base (S)-1-((R)-3-amino-1-(...)piperidin-3-yl)-2,2-difluoroethan-1-ol) [1]: 1.61 mg/mL

Substance: Maleic Acid Salt of (S)-1-((R)-3-amino-1-(4-((6-amino-9H-purin-9-yl)methyl)-6-(2,5-difluoro-4-methoxyphenyl)pyridin-3-yl)piperidin-3-yl)-2,2-difluoroethan-1-ol [Example 1]
- increase in weight by dynamic vapor sorption [2]: 0.507%
- change of crystalline form by XRPD after the stability study [3]: no change of the crystalline form
- HPLC purity after the stability study ([3]; 99.59 area percent before the study): 99.56 area percent
